# US10995101B2, “2-oxo-thiazole derivatives as A2A inhibitors and compounds for use in the treatment of cancers” (iTeos Therapeutics SA, priority 2017, dated 2021)
# Several values for one entry are separate records, joined by “and”; a condition that tells them apart may be missing. Identical values can stand only once. Like-named read-outs stand apart in the source and are kept apart here.
# What was measured:
# A2A receptor [1] = target: T1, A2A receptor (Homo sapiens, UniProt P29274); assay: Inhibition of cAMP production in HEK cells; type: cell-based; conditions: HEK-293 cells with A2A receptor
# in vitro = conditions: human, Caco-2, pH 7.4
# Description: 2 μM dosing solutions for reference compounds and test compounds are prepared by spiking the appropriate volume of intermediate solution to TB with and without 1 μM Zosuquidar. The final concentration of DMSO is no more than 1% (v/v).
# Caco-2 cells are grown in MEM supplemented with 2 mM L-glutamine, 10% FBS, 100 U/mL penicillin-G and 100 μg/mL streptomycin. The cells are incubated at 37° C., 5% CO2 and relatively saturated humidity. After reaching 80-90% confluency, the cells are gently detached with 0.05% trypsin-EDTA solution.
# TB and dosing solutions were pre-warmed to 37° C. before transport assay. The cell monolayer was washed twice with HBSS containing 10 mM HEPES. For A-B (apical to basolateral) directional transport assay, 75 μL dosing solution is added to the apical well. Fill each basolateral well with 250 μL TB. For B-A (basolateral to apical) directional transport assay, 250 μL of dosing solution is added to the basolateral well after filling each apical well with 75 μL TB. […] The plates are incubated for 120 minutes at 37° C. with 5% CO2 and saturated humidity. The time zero samples are generated by mixing 50 μL initial dosing solution of test compound or reference compound with 100 μL TB and 250 μL quench solution (acetonitrile (ACN) or other appropriate solvent with internal standard(s), based on the bioanalytical method development). At 120 minutes, 150 μL of solution is collected from each A-B receiver well followed by addition of 250 μL quench solution to get A-B receiver sample. And for other samples (A-B donor, B-A donor and receiver), 50 μL of solution is collected from each corresponding well followed by addition of 250 μL quench solution and 100 μL TB. All samples are vortex-mixed and centrifuged at 3220 g for 20 minutes. Subsequently, supernatant is diluted with ultra pure water for LC-MS/MS analysis. The concentrations of test compound in all samples are determined by LC-MS/MS and expressed as peak area ratio of analyte to internal standard.
# The concentration of samples is expressed using the peak area ratio of Analyte to Internal Standard (Analyte/IS).
# The efflux ratio is calculated using the following equation: Efflux ratio=Papp(A−B)/Papp(B−A) • where Papp (A−B) and Papp (B−A) are the Papp values of compound in Apical to Basolateral and Basolateral to Apical directional transport, respectively.
# A2AR = A2AR (Mus musculus, UniProt Q60613); conditions: 10 mg/kg PO 30 min prior to CGS21680; score observed in at least 60-100% of mice for 30 minutes
# A2A receptor [2] = target: T1, A2A receptor; assay: Modulation of pCREB in human immune cells; type: cell-based; parameters: endogenous in cells; host or cells: human CD3+ T cells isolated from venous blood of healthy volunteers; conditions: read-out: IC50 of pCREB inhibition
# Description: The A2A receptor is known to mediate CREB phosphorylation.
# Venous blood from healthy volunteers, all of whom signed an informed consent approved by the Ethics Committee (FOR-UIC-BV-050-01-01 ICF_HBS_HD Version 5.0), was obtained via ImmuneHealth (Centre Hospitalier Universitaire Tivoli, La Louviere, Belgium). […] All dilutions were prepared in RPMI1640 medium (with UltraGlutamine; Lonza, Verviers, Belgium), and cells were incubated with compounds in a 37° C. humidified tissue culture incubator with 5% CO2. After stimulation, cells were fixed and permeabilized, followed by intracellular staining using mouse anti-human pCREB antibodies (Clone J151-21; BD Biosciences) at room temperature. Data were acquired using an LSRFortessa flow cytometer (BD Biosciences) and analyzed using FlowJo software (FlowJo, LLC, Ashland, Oreg.).
# [3] = Concentration in brain and cerebrospinal fluid compared to plasma; type: in vivo, mice; conditions: for concentration at 0.5 h / Kp at 0.5 h / plasma concentration at 0.5 h: female, Balb-c, mouse, po; for plasma concentration at 0.5 h: Plasma Concentration (ng/mL)
# Description: 7-9 weeks old female Balb-c mice (obtained from SLAC Laboratory Animal Co. Ltd., Shanghai, China or SIPPR-B&K Laboratory Animal Co. Ltd., Shanghai, China) were dosed orally at a dose of 10 mg/kg, as a 1.00 mg/mL suspension in 10% DMSO+10% solutol+80% water, adjusted to pH 3-4 (homogenous opaque suspension).
# Animals were fasted at least 12 hours prior to the administration. All animals had access to Certified Rodent Diet (Catalog # M01-F, SLAC Laboratory Animal Cl. Ltd., Shanghai, China) ad libitum 4 hours post dosing. Serial bleeding (about 30 μL blood per time point) were performed from submadibular or saphenous vein. Those samples were transferred into prechilled microcentrifuge tubes containing 2 μL of K2EDTA (0.5M) as anti-coagulant and placed on wet ice for further treatment. Immediately after blood collection, the whole brain was harvested immediately at the designed time points. At selected timepoints post-dose, CSF was collected from cisterna magna.
# Blood samples were processed for plasma by centrifugation at approximately 4° C., 3000 g 15 min within half an hour of collection. Plasma samples were stored in polypropylene tubes, quick frozen over dry ice and kept at −70° C. until LC/MS/MS analysis. Brain samples were weighed, rinsed in cold distilled water to remove blood, and homogenized using pre-cooled water at the ratio of 1:4 (1 g brain used 4 mL water). And the brain homogenization was kept at −70° C. until LC/MSMS analysis. CSF was quick frozen over dry ice and kept at −70° C. until LC/MS/MS analysis.
# [4] = individual mice, PO 10 mg/kg, 0.500 h, 10 mg/kg
# T1 sequence (P29274 whole entry): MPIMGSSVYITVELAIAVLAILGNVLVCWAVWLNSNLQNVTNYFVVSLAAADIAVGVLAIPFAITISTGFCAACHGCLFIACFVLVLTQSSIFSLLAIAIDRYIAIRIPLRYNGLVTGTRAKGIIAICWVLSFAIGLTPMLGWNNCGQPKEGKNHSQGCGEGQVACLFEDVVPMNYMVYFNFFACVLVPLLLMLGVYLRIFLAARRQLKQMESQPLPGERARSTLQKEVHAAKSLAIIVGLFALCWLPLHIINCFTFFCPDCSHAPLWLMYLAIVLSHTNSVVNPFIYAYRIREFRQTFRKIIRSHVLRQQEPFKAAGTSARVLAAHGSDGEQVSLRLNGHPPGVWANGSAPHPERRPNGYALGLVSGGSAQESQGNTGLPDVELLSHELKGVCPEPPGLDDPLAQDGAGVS
# A2AR, sequence (Q60613 whole entry): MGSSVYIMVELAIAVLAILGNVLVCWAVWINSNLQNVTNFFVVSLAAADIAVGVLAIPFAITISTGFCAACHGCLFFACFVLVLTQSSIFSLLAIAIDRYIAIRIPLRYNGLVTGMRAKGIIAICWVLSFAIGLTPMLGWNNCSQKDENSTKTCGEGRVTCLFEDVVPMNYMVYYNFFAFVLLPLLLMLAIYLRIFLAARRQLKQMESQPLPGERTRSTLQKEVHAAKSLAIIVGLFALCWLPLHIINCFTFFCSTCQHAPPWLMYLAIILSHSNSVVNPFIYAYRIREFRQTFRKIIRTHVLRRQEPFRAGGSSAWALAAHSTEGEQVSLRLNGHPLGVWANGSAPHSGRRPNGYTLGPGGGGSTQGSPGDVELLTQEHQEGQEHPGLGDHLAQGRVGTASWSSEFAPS
compound,measurement,setting,value
"NC(=O)COc1cc(N2CCN(CCn3c(=O)sc4c3nc(N)n3nc(-c5ccco5)nc43)CC2)c(F)cc1F [Compound 4, 2-(5-(4-(2-(5-amino-8-(furan-2-yl)-2-oxothiazolo[5,4-e][1,2,4]triazolo [1,5-c]pyrimidin-3(2H)-yl)ethyl)piperazin-1-yl)-2,4-difluorophenoxy)acetamide]",IC50,"A2A receptor [1]; IC50 (nM) (3 nM NECA as agonist, 0.1% BSA), 3 nM NECA as agonist, 0.1% BSA",0.5 nM
same,IC50,"A2A receptor [1]; IC50 (nM) (5 nM NECA as agonist, 2% HSA), 5 nM NECA as agonist, 2% HSA",2 nM
same,IC50,"A2A receptor [1]; IC50 (nM) (5 μM Adenosine as agonist, 2.0% HSA), 5 μM Adenosine as agonist, 2.0% HSA",49 nM
same,"efflux ratio at 120 min, 2 μM",in vitro,123
same,Score (locomotion / immobility),A2AR,+++
same,IC50,A2A receptor [2],20 nM
same,concentration at 0.5 h,"[3]; CSF, 10 mg/kg, individual mice, PO 10 mg/kg, 0.500 h, read-out: CSF Concentration",< 3 ng/mL
same,Kp at 0.5 h,"[3]; CSF, 10 mg/kg, individual mice, PO 10 mg/kg, 0.500 h, read-out: CSF/Plasma Ratio",< 0.005
same,concentration at 0.5 h,"[3]; CSF, 10 mg/kg, mean of 3 mice, PO 10 mg/kg, 0.500 h, read-out: CSF Concentration (ng/mL), Mean",< 3 ng/mL
same,Kp at 0.5 h,"[3]; CSF, 10 mg/kg, mean of 3 mice, PO 10 mg/kg, 0.500 h, read-out: CSF/Plasma Ratio, Mean",< 0.004
same,concentration at 0.5 h,"[3]; brain, 10 mg/kg, individual mice, PO 10 mg/kg, 0.500 h, read-out: Brain Concentration",< 15 ng/g
same,Kp at 0.5 h,"[3]; brain, 10 mg/kg, individual mice, PO 10 mg/kg, 0.500 h, read-out: Brain/Plasma Ratio",< 0.026
same,concentration at 0.5 h,"[3]; brain, 10 mg/kg, mean of 3 mice, PO 10 mg/kg, 0.500 h, read-out: Brain Concentration (ng/g), Mean",< 16 ng/g
same,Kp at 0.5 h,"[3]; brain, 10 mg/kg, mean of 3 mice, PO 10 mg/kg, 0.500 h, read-out: Brain/Plasma Ratio, Mean",< 0.021
same,plasma concentration at 0.5 h,"[3]; 10 mg/kg, Mean, mean of 3 mice, PO 10 mg/kg, 0.500 h",779 ng/mL
same,plasma concentration at 0.5 h,"[3]; 10 mg/kg, individual mice, PO 10 mg/kg, 0.500 h, female Balb-c mice",576 ng/mL
same,CSF Concentration,"[3]; individual mice, PO 10 mg/kg, 0.500 h",<3 ng/mL
same,Plasma Concentration,"[3]; individual mice, PO 10 mg/kg, 0.500 h, female Balb-c mice, 10 mg/kg",995 ng/mL and 765 ng/mL
same,Brain Concentration,[3]; [4],16.9 ng/g and <15 ng/g
same,Brain/Plasma Ratio,[3]; [4],0.0169 and <0.020
same,CSF/Plasma Ratio,[3]; [4],<0.003 and <0.004
same,quantity found in brain or CSF,"[3]; mice, oral 10 mg/kg",no measurable quantity
